# Columns and labels:
# [1] = target: PI3-kinase p110-delta/p85-alpha (Homo sapiens) (UniProt P27986+O00329); assay: Inhibition of p110delta/p85alpha (unknown origin) at 100 nM incubated for 2 hrs in presence of ATP by ADP-kinaseGlo reagent based assay relative to control; type: protein-complex assay
# [2] = target: T1, Bromodomain-containing protein 4 (Homo sapiens, UniProt O60885); assay: Inhibition of His-tagged BRD4-BD1 (unknown origin) at 10 nM incubated for 30 mins by Alphascreen assay relative to control
# [3] = target: PI3-kinase p110-delta/p85-alpha (Homo sapiens, UniProt O00329); assay: Inhibition of p110delta/p85alpha (unknown origin) incubated for 2 hrs in presence of ATP by ADP-kinaseGlo reagent based assay; type: protein-complex assay
# PI3-kinase p110-delta/p85-alpha, sequence (P27986 whole entry): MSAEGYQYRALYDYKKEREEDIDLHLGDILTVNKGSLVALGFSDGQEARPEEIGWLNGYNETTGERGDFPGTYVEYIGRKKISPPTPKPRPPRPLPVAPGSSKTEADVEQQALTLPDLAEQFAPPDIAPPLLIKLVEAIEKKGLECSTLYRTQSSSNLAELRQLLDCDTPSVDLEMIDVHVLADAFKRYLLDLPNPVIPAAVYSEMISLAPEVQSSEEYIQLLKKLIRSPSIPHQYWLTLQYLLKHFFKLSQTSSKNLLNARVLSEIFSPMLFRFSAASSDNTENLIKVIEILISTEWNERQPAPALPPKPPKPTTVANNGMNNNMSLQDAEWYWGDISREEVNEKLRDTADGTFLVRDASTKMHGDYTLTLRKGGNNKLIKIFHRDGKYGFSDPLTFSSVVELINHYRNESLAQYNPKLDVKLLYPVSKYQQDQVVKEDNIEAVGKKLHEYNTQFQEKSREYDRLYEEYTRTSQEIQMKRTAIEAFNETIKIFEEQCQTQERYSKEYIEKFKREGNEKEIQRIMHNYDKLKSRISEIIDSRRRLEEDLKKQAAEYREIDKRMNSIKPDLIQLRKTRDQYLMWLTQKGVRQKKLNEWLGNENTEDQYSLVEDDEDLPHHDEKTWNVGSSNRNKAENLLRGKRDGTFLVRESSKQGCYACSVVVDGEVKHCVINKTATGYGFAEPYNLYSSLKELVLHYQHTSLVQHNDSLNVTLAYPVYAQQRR
# PI3-kinase p110-delta/p85-alpha, sequence (O00329 whole entry): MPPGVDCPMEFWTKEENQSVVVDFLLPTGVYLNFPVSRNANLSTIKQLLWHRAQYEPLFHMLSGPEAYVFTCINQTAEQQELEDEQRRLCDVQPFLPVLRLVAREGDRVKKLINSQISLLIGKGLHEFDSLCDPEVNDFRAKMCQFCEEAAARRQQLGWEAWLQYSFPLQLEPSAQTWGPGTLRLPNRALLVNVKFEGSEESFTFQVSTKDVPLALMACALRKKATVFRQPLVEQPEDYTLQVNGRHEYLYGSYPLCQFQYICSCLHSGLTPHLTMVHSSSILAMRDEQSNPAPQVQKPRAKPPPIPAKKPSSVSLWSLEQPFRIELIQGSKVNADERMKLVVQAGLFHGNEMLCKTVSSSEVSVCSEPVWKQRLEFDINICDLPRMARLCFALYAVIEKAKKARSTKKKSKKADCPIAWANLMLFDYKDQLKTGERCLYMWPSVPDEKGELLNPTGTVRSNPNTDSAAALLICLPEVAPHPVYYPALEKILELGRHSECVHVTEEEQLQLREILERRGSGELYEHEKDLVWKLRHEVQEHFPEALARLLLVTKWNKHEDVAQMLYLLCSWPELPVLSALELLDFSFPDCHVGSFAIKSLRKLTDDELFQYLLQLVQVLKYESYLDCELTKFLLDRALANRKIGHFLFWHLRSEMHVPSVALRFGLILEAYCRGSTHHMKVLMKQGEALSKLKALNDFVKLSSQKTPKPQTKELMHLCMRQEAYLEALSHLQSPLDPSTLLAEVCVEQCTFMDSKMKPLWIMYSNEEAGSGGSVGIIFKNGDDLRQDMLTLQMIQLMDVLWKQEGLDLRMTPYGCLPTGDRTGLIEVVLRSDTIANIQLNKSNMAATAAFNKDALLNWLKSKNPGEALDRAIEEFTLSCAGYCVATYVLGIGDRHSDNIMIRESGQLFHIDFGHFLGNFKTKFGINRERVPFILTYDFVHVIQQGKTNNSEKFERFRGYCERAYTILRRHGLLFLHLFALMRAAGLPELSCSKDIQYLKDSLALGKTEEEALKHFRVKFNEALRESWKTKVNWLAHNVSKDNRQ
# [4] = target: T1, Bromodomain-containing protein 4; assay: Inhibition of His-tagged BRD4-BD1 (unknown origin) incubated for 30 mins in presence of ATP by Alphascreen assay
# [5] = system: SUD4; assay: Antiproliferative against activity human SU-DHL-4 cells assessed as inhibition of cell growth incubated for 72 hrs by Celltiter-luminescence analysis; type: functional, cell-based; conditions: SU-DHL-4, 72 h
# [6] = system: SUD4; assay: Antiproliferative against activity human SU-DHL-4 cells assessed as inhibition of cell growth incubated for 72 hrs in presence of 10:1 compound:ABBV-75 by Celltiter-luminescence analysis; type: functional, cell-based; conditions: SU-DHL-4, 72 h
# [7] = system: SU-DHL-6; assay: Antiproliferative against activity human SU-DHL-6 cells assessed as inhibition of cell growth incubated for 72 hrs in presence of 10:1 compound:ABBV-75 by Celltiter-luminescence analysis; type: functional, cell-based; conditions: SU-DHL-6, 72 h
# [8] = system: SU-DHL-6; assay: Antiproliferative against activity human SU-DHL-6 cells assessed as inhibition of cell growth incubated for 72 hrs by Celltiter-luminescence analysis; type: functional, cell-based; conditions: SU-DHL-6, 72 h
# [9] = target: Bromodomain-containing protein 2 (Homo sapiens, UniProt P25440); assay: Inhibition of His-tagged BRD2-BD1 (unknown origin) incubated for 30 mins in presence of ATP by Alphascreen assay
# Bromodomain-containing protein 2, sequence (P25440 whole entry): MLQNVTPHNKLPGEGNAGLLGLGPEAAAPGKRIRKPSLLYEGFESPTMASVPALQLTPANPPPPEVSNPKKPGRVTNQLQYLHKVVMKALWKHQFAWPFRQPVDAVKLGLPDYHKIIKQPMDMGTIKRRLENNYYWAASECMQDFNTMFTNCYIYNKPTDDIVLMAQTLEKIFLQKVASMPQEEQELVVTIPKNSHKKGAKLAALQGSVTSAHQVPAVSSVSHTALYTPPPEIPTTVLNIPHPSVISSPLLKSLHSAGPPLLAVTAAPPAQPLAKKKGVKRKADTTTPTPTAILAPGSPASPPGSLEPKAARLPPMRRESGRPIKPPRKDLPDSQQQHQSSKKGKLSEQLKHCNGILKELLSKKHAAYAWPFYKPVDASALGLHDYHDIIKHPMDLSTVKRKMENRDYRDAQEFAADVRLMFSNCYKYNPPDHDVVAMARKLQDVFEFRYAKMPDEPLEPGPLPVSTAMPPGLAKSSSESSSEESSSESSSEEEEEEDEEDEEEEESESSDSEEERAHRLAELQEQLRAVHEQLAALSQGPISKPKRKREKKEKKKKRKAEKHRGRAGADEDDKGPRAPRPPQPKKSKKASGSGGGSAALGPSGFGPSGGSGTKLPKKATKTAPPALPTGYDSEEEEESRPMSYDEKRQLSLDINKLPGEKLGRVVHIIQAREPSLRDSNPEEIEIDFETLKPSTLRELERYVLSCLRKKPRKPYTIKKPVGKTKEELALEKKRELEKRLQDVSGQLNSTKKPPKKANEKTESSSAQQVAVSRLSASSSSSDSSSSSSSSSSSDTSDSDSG
# [10] = target: Bromodomain-containing protein 3 (Homo sapiens, UniProt Q15059); assay: Inhibition of His-tagged BRD3-BD1 (unknown origin) incubated for 30 mins in presence of ATP by Alphascreen assay
# Bromodomain-containing protein 3, sequence (Q15059 whole entry): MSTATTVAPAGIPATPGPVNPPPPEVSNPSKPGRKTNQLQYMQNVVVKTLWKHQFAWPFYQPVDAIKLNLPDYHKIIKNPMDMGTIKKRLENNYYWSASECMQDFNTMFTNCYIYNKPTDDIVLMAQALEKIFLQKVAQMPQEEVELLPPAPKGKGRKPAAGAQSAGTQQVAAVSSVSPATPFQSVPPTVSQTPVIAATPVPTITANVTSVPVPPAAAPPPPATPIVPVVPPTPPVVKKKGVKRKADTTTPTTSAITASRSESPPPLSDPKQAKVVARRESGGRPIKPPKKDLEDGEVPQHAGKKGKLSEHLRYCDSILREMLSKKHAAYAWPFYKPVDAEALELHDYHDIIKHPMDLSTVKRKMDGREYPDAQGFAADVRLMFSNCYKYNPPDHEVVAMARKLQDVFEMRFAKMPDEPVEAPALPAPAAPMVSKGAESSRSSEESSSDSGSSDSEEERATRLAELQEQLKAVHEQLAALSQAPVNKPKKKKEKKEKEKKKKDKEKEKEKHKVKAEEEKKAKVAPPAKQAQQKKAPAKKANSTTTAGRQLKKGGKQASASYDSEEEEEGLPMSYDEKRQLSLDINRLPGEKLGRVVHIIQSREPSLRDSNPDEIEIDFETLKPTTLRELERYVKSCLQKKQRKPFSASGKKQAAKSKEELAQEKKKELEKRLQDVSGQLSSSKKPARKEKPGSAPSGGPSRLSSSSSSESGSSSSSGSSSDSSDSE
# [11] = system: SUD4; assay: Induction of apoptosis in human SU-DHL-4 cells assessed as late apoptotic cells at 1 uM incubated for 24 hrs by Annexin V-FITC/PI staining based flow cytometric analysis (reference value: 6.74 %); type: functional
# [12] = system: SUD4; assay: Induction of apoptosis in human SU-DHL-4 cells assessed as viable cells at 1 uM incubated for 24 hrs by Annexin V-FITC/PI staining based flow cytometric analysis (reference value: 65.2 %); type: functional; conditions: read-out: Activity
# [13] = Toxicity in female BALB/c mouse model xenografted with human SU-DHL-6 cells assessed as effect on body weight at 20 mg/kg, po administered once daily via gavage for 15 days; type: organism-based; conditions: in vivo, 360 h, time 15 day
# [14] = target: T1, Bromodomain-containing protein 4; assay: Inhibition of His-tagged BRD4-BD2 (unknown origin) incubated for 30 mins in presence of ATP by Alphascreen assay
# [15] = system: SU-DHL-6; assay: Antitumor activity against human SU-DHL-6 cells xenografted in female BALB/c mouse model assessed as tumor growth inhibition at 20 mg/kg, po administered once daily via gavage for 15 days relative to control; type: functional; conditions: SU-DHL-6, 360 h, time 15 day, read-out: TGI
# [16] = Toxicity in female BALB/c mouse model xenografted with human SU-DHL-6 cells assessed as effect on liver histopathology at 20 mg/kg, po administered once daily via gavage for 15 days by H and E staining based analysis; type: organism-based; conditions: in vivo, 360 h, time 15 day
# [17] = Toxicity in female BALB/c mouse model xenografted with human SU-DHL-6 cells assessed as effect on heart histopathology at 20 mg/kg, po administered once daily via gavage for 15 days by H and E staining based analysis; type: organism-based; conditions: in vivo, 360 h, time 15 day
# [18] = Toxicity in female BALB/c mouse model xenografted with human SU-DHL-6 cells assessed as effect on spleen histopathology at 20 mg/kg, po administered once daily via gavage for 15 days by H and E staining based analysis; type: organism-based; conditions: in vivo, 360 h, time 15 day
# [19] = target: Serine/threonine-protein kinase mTOR (Homo sapiens, UniProt P42345); assay: Inhibition of mTOR (unknown origin) incubated for 2 hrs in presence of ATP by ADP-kinaseGlo reagent based assay
# [20] = system: WI-38; assay: Cytotoxicity against human WI-38 cells assessed as inhibition of cell growth at 1 uM incubated for 72 hrs by Celltiter-luminescence analysis; type: toxicity, cell-based; conditions: wi-38, 72 h
# [21] = system: SU-DHL-6; assay: Induction of apoptosis in human SU-DHL-6 cells assessed as early apoptotic cells at 1 uM incubated for 24 hrs by Annexin V-FITC/PI staining based flow cytometric analysis (reference value: 32.1 %); type: functional
# [22] = Toxicity in female BALB/c mouse model xenografted with human SU-DHL-6 cells assessed as effect on kidney histopathology at 20 mg/kg, po administered once daily via gavage for 15 days by H and E staining based analysis; type: organism-based; conditions: in vivo, 360 h, time 15 day
# [23] = system: SU-DHL-6; assay: Induction of apoptosis in human SU-DHL-6 cells assessed as viable cells at 1 uM incubated for 24 hrs by Annexin V-FITC/PI staining based flow cytometric analysis (reference value: 61.2 %); type: functional; conditions: read-out: Activity
# [24] = system: SU-DHL-6; assay: Antitumor activity against human SU-DHL-6 cells xenografted in female BALB/c mouse model assessed as downregulation of Ki67 level in tumor at 20 mg/kg, po administered once daily via gavage for 15 days by immunohistochemical staining based analysis; type: functional, organism-based; conditions: time 15.0 day
# [25] = Toxicity in female BALB/c mouse model xenografted with human SU-DHL-6 cells assessed as effect on lung histopathology at 20 mg/kg, po administered once daily via gavage for 15 days by H and E staining based analysis; type: organism-based; conditions: in vivo, 360 h, time 15 day
# [26] = system: SUD4; assay: Induction of apoptosis in human SU-DHL-4 cells assessed as early apoptotic cells at 1 uM incubated for 24 hrs by Annexin V-FITC/PI staining based flow cytometric analysis (reference value: 25.3 %); type: functional
# [27] = system: SU-DHL-6; assay: Induction of apoptosis in human SU-DHL-6 cells assessed as necrotic cells at 1 uM incubated for 24 hrs by Annexin V-FITC/PI staining based flow cytometric analysis (reference value: 0.246 %); type: functional
# [28] = target: Phosphatidylinositol 4,5-bisphosphate 3-kinase catalytic subunit beta isoform (Homo sapiens, UniProt P42338); assay: Inhibition of PI3Kbeta (unknown origin) incubated for 2 hrs in presence of ATP by ADP-kinaseGlo reagent based assay
# [29] = system: HUVEC; assay: Cytotoxicity against HUVEC cells assessed as inhibition of cell growth at 1 uM incubated for 72 hrs by Celltiter-luminescence analysis; type: toxicity, cell-based; conditions: human
# [30] = system: SUD4; assay: Induction of apoptosis in human SU-DHL-4 cells assessed as necrotic cells at 1 uM incubated for 24 hrs by Annexin V-FITC/PI staining based flow cytometric analysis (reference value: 0.642 %); type: functional
# [31] = system: SU-DHL-6; assay: Induction of apoptosis in human SU-DHL-6 cells assessed as late apoptotic cells at 1 uM incubated for 24 hrs by Annexin V-FITC/PI staining based flow cytometric analysis (reference value: 6.43 %); type: functional
# [32] = target: Bromodomain testis-specific protein (Homo sapiens, UniProt Q58F21); assay: Inhibition of His-tagged BRDT-BD1 (unknown origin) incubated for 30 mins in presence of ATP by Alphascreen assay
# [33] = target: Phosphatidylinositol 4,5-bisphosphate 3-kinase catalytic subunit gamma isoform (Homo sapiens, UniProt P48736); assay: Inhibition of PI3Kgamma (unknown origin) incubated for 2 hrs in presence of ATP by ADP-kinaseGlo reagent based assay
# Phosphatidylinositol 4,5-bisphosphate 3-kinase catalytic subunit gamma isoform, sequence (P48736 whole entry, canonical isoform): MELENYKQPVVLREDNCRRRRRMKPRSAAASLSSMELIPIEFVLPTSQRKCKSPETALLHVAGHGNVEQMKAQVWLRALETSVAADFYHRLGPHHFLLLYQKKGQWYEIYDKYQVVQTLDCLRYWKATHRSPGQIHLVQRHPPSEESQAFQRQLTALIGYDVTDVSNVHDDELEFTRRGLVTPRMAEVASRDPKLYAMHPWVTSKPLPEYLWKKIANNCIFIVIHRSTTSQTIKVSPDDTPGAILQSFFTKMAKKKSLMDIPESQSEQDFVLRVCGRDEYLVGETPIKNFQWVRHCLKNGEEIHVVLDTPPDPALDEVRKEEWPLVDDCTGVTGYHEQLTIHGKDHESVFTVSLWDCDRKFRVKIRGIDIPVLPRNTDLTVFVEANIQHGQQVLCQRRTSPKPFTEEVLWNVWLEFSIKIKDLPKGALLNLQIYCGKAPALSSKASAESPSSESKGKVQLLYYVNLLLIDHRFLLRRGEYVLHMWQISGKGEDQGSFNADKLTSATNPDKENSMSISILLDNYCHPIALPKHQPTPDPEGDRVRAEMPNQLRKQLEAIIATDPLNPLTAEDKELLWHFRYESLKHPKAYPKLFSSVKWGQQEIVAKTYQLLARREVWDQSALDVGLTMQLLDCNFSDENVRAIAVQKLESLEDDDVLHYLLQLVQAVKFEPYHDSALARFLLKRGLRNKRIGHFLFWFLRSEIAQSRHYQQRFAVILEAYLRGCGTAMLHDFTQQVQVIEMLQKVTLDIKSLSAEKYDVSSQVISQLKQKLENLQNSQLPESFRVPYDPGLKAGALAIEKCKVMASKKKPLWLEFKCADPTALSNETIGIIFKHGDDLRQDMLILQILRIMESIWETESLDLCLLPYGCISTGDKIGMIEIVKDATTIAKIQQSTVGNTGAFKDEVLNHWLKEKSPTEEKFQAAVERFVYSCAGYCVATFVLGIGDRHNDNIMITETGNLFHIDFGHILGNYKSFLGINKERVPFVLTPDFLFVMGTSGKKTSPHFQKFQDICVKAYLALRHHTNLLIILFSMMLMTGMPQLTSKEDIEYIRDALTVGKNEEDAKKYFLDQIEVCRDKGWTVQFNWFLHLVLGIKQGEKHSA
# [34] = system: SU-DHL-6; assay: Antiproliferative against activity human SU-DHL-6 cells assessed as inhibition of cell growth incubated for 72 hrs in presence of 10:1 PI-3065:compound by Celltiter-luminescence analysis; type: functional, cell-based; conditions: SU-DHL-6, 72 h
# [35] = system: SUD4; assay: Antiproliferative against activity human SU-DHL-4 cells assessed as inhibition of cell growth incubated for 72 hrs in presence of 10:1 PI-3065:compound by Celltiter-luminescence analysis; type: functional, cell-based; conditions: SU-DHL-4, 72 h
compound,measurement,setting,value
Cn1cc(-c2nc(N3CCOCC3)c3sc(CN4CCN(CC5CC5)CC4)cc3n2)ccc1=O,inhibition,[1],25.7%
same,inhibition,[2],32.6%
C[C@H](O)C(=O)N1CCN(Cc2cc3nc(-c4cn(C)c(=O)c5[nH]ccc45)nc(N4CCOCC4)c3s2)CC1,inhibition,[1],33.2%
same,inhibition,[2],39.9%
same,IC50,[3],206 nM
same,IC50,[4],11 nM
Fc1ccc2[nH]ccc2c1-c1nc(N2CCOCC2)c2sc(CN3CCN(CC4CC4)CC3)cc2n1,IC50,[5],263 nM
same,IC50,[6],14 nM
same,IC50,[3],23 nM
same,IC50,[7],10 nM
same,IC50,[8],1820 nM
CNc1cc(-c2nc(N3CCOCC3)c3sc(CN4CCN(CC5CC5)CC4)cc3n2)cn(C)c1=O,inhibition,[1],6%
same,inhibition,[2],9.1%
C[C@@H](N)C(=O)N1CCN(Cc2cc3nc(-c4cn(C)c(=O)c5[nH]ccc45)nc(N4CCOCC4)c3s2)CC1,inhibition,[1],16.2%
same,inhibition,[2],56.8%
Cn1cc(-c2nc(N3CCOCC3)c3sc(CN4CCN(C(=O)CO)CC4)cc3n2)c2cc[nH]c2c1=O,inhibition,[1],28.8%
same,inhibition,[2],35.2%
C[C@@H](O)C(=O)N1CCN(Cc2cc3nc(-c4cn(C)c(=O)c5[nH]ccc45)nc(N4CCOCC4)c3s2)CC1,inhibition,[1],27.4%
same,inhibition,[2],38.2%
Cn1cc(-c2nc(N3CCOCC3)c3sc(CN4CCN(S(C)(=O)=O)CC4)cc3n2)c2cc[nH]c2c1=O,inhibition,[1],45.7%
same,IC50,[5],665 nM
same,inhibition,[2],32.7%
same,IC50,[3],96 nM
same,IC50,[4],15 nM
same,IC50,[8],270 nM
Cn1cc(-c2nc(N3CCOCC3)c3sc(CN4CCN(C(=O)C(C)(C)O)CC4)cc3n2)c2cc[nH]c2c1=O,inhibition,[1],20.1%
same,inhibition,[2],32.6%
Cn1cc(-c2nc(N3CCOCC3)c3sc(CN4CCN(CC5CC5)CC4)cc3n2)c2cn[nH]c2c1=O,inhibition,[1],43.5%
same,inhibition,[2],12.7%
Cn1cc(-c2nc(N3CCOCC3)c3sc(CN4CCC(O)CC4)cc3n2)c2cc[nH]c2c1=O,inhibition,[1],19.4%
same,inhibition,[2],36%
Cn1cc(-c2nc(N3CCOCC3)c3sc(CN4CCN(C(=O)CN)CC4)cc3n2)c2cc[nH]c2c1=O,inhibition,[1],16%
same,inhibition,[2],28.2%
Cn1cc(-c2nc(N3CCCCC3)c3sc(CN4CCN(CC5CC5)CC4)cc3n2)c2cc[nH]c2c1=O,inhibition,[1],0.9%
same,inhibition,[2],35%
Cn1cc(-c2nc(N3CCOCC3)c3sc(CN4CCN(CC5CC5)CC4)cc3n2)cc(N)c1=O,inhibition,[1],7.7%
same,inhibition,[2],18.1%
Cc1c(-c2nc(N3CCOCC3)c3sc(CN4CCN(CC5CC5)CC4)cc3n2)cn(C)c(=O)c1N,inhibition,[1],6%
same,inhibition,[2],1.4%
CC(=O)Nc1cc(-c2nc(N3CCOCC3)c3sc(CN4CCN(CC5CC5)CC4)cc3n2)cn(C)c1=O,inhibition,[1],21.5%
same,inhibition,[2],3%
O=c1cc(N2CCOCC2)oc2c(-c3ccc4c(c3)OCCO4)csc12,IC50,[9],383 nM
same,IC50,[10],303 nM
same,Activity,[11],10.4%
same,viability at 1 µM,[12],61.7%
same,Activity,[13],Non-toxic
same,IC50,[14],235 nM
same,IC50,[5],1880 nM
same,inhibition in vivo at 20 mg/kg,[15],62.3%
same,IC50,[3],158 nM
same,IC50,[4],312 nM
same,Activity,[16],Non-toxic
same,Activity,[17],Non-toxic
same,Activity,[18],Non-toxic
same,IC50,[19],599 nM
same,Activity,[20],Toxic
same,Activity,[21],33.6%
same,Activity,[22],Non-toxic
same,viability at 1 µM,[23],60.2%
same,Activity,[24],Active; More Effective Than Sf2523
same,Activity,[25],Non-toxic
same,Activity,[26],26.8%
same,Activity,[27],0.61%
same,IC50,[28],129 nM
same,Activity,[29],Toxic
same,Activity,[30],1.05%
same,IC50,[8],518 nM
same,Activity,[31],5.53%
same,IC50,[32],1230 nM
same,IC50,[33],251 nM
Cn1ccc(-c2nc(N3CCOCC3)c3sc(CN4CCN(CC5CC5)CC4)cc3n2)cc1=O,inhibition,[1],24.1%
same,inhibition,[2],4.6%
Cn1cc(-c2nc(N3CCOCC3)c3sc(CN4CCN(CC5CC5)CC4)cc3n2)c2cc[nH]c2c1=O,inhibition,[1],19.5%
same,IC50,[5],220 nM
same,inhibition,[2],58.2%
same,IC50,[3],464 nM
same,IC50,[4],7.8 nM
same,IC50,[8],53 nM
CCS(=O)(=O)Nc1ccc(Oc2ccc(F)cc2F)c(-c2cn(C)c(=O)c3[nH]ccc23)c1 [MIVEBRESIB],IC50,[5],41 nM
same,IC50,[34],10 nM
same,IC50,[4],0.73 nM
same,IC50,[35],14 nM
same,IC50,[8],23 nM
CC(=O)N1CCN(Cc2cc3nc(-c4cn(C)c(=O)c5[nH]ccc45)nc(N4CCOCC4)c3s2)CC1,inhibition,[1],46.9%
same,IC50,[5],166 nM
same,inhibition,[2],44.2%
same,IC50,[3],108 nM
same,IC50,[4],11 nM
same,IC50,[8],79 nM
C[C@H](N)C(=O)N1CCN(Cc2cc3nc(-c4cn(C)c(=O)c5[nH]ccc45)nc(N4CCOCC4)c3s2)CC1,inhibition,[1],19.5%
same,inhibition,[2],59.9%
